What all share (type): cell-based
The target in one assay is T1, human TLR8 (Homo sapiens, UniProt Q9NR97).
T1 construct: host or cells: HEK-Blue cells
T1 sequence (Q9NR97 27-1041): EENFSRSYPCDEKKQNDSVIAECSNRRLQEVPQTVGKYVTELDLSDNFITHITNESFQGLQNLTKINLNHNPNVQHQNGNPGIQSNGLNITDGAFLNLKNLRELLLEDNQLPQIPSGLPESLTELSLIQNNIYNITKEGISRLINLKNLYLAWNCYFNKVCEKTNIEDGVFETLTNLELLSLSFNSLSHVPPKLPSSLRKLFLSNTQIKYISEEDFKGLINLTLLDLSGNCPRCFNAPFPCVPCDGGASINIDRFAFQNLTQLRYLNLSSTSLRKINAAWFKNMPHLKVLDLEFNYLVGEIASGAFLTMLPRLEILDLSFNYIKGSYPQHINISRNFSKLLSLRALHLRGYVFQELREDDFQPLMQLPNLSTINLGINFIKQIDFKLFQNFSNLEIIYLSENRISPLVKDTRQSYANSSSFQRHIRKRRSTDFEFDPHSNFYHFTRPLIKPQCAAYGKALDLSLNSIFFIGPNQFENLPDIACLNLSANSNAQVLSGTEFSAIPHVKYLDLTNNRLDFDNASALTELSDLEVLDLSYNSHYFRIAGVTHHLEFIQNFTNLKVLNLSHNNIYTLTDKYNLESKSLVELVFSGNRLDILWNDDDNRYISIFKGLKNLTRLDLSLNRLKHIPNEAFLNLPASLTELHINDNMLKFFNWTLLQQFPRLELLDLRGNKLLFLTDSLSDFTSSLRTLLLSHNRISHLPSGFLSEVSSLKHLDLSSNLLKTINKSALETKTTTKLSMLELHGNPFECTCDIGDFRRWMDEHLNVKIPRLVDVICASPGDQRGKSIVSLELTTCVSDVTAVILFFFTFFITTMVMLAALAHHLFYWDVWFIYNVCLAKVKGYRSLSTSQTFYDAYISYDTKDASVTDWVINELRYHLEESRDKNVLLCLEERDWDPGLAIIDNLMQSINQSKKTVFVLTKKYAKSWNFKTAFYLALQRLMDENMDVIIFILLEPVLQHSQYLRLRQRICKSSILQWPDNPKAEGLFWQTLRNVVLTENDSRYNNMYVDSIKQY
In words: TLR8 inhibition reporter assay (HEK-Blue cells, SEAP reporter, R848 stimulation). The settings on record: HEK-Blue cells overexpressing human TLR8, SEAP reporter, R848 15.9 μM; read-out: TLR8 IC50. The procedure, abridged:
(§1)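 Compound treatment: 30 min, RT, 0.05 nM–50 μM final. Agonist: TLR7 gardiquimod 7.5 μM; TLR8 R848 15.9 μM; TLR9 ODN2006 5 nM. Incubation 22 h, 37 °C, 5% CO2. Readout SEAP, HEK-Blue Detection.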

Another assay has as its target T2, human TLR7 (Homo sapiens, UniProt Q9NYK1).
T2 construct: host or cells: HEK-Blue cells
T2 sequence (Q9NYK1 27-1049): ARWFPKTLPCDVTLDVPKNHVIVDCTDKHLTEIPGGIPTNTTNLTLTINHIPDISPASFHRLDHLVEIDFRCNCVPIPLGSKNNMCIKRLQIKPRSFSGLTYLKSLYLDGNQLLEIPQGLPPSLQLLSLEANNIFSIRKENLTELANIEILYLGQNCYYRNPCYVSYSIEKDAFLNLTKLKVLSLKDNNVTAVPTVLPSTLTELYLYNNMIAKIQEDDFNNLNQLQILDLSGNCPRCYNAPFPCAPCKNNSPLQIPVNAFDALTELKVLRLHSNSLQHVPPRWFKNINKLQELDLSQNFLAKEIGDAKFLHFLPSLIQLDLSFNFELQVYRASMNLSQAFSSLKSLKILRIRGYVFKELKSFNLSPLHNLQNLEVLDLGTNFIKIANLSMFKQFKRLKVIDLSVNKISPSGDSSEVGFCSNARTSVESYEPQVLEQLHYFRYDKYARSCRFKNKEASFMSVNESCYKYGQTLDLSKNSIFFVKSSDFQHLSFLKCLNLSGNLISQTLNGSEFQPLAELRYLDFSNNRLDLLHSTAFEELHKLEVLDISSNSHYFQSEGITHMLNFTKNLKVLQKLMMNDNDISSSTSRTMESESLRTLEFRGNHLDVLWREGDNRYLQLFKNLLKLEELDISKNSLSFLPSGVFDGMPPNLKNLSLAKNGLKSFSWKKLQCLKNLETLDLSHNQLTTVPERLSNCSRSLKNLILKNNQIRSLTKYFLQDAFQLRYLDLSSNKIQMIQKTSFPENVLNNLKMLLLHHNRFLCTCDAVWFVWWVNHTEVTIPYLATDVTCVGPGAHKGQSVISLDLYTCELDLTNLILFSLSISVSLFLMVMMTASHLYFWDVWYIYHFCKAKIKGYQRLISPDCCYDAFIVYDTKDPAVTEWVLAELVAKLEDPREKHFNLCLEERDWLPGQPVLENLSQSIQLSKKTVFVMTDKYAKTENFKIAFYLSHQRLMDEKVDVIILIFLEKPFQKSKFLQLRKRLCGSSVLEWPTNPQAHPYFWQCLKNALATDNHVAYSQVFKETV
The assay is described as follows: TLR7 inhibition reporter assay (HEK-Blue cells, SEAP reporter, gardiquimod stimulation). The settings on record: HEK-Blue cells overexpressing human TLR7, SEAP reporter, gardiquimod 7.5 μM; read-out: TLR7 IC50. The procedure, abridged:
as §1
For orientation: Reporter assays use an easily measured gene product as a stand-in for the process of interest.

For the next assay, the target named is T3, human TLR9 (Homo sapiens, UniProt Q9NR96).
T3 construct: host or cells: HEK-Blue cells
T3 sequence (Q9NR96 26-1032): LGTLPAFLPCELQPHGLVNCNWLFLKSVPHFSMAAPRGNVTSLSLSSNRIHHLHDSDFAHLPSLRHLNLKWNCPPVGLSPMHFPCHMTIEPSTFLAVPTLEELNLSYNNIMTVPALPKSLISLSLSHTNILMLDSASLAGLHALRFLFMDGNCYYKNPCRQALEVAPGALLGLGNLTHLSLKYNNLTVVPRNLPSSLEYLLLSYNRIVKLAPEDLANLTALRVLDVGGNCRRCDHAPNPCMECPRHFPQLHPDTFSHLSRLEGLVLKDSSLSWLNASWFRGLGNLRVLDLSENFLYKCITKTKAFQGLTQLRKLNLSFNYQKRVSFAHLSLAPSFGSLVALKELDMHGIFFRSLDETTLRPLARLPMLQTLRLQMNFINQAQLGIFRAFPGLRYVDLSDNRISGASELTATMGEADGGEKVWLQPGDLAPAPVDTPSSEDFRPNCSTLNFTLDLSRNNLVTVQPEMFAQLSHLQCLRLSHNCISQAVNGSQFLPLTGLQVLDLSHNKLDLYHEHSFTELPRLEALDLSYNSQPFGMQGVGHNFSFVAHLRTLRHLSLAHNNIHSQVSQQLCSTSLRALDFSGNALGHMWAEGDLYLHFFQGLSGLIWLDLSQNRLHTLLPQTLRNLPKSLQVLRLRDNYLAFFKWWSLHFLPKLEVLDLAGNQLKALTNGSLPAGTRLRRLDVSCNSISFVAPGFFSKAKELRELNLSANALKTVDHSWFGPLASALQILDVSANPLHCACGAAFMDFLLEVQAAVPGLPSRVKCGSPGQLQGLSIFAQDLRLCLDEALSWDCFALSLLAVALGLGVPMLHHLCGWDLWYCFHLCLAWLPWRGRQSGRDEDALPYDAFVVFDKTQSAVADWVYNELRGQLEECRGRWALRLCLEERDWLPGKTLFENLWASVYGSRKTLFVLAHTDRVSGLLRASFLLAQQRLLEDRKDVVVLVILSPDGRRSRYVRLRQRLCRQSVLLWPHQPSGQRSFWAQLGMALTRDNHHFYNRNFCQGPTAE
In words: TLR9 inhibition reporter assay (HEK-Blue cells, SEAP reporter, ODN2006 stimulation). The settings on record: HEK-Blue cells overexpressing human TLR9, SEAP reporter, ODN2006 5 nM. The method in brief: as §1

A word on the IC50: it is the concentration needed to halve the response being measured.

`Cc1c(-c2[nH]c3sc(C(=O)N4CCC(N(C)C)CC4)nc3c2C(C)C)cn2ncnc2c1C` [Example 376, (5-(7,8-dimethyl-[1,2,4]triazolo[1,5-a]pyridin-6-yl)-6-isopropyl-4H-pyrrolo[3,2-d]thiazol-2-yl)(4-(dimethylamino)piperidin-1-yl)methanone]: the IC50 stood at 2.8 nM on human TLR8, 4.54 nM at human TLR7 and 6300 nM on human TLR9.
For `Cc1c(-c2[nH]c3sc(C(=O)N4CC(F)C4)nc3c2C(C)C)cn2ncnc2c1C` [Example 379, (5-(7,8-dimethyl-[1,2,4]triazolo[1,5-a]pyridin-6-yl)-6-isopropyl-4H-pyrrolo[3,2-d]thiazol-2-yl) (3-fluoroazetidin-1-yl)methanone], in that order: 22.9 nM, 55.7 nM and 28000 nM.
For `Cc1c(-c2[nH]c3sc(C(=O)N4CCN(C(C)C)CC4)nc3c2C(C)C)cn2ncnc2c1C` [Example 380, (5-(7,8-dimethyl-[1,2,4]triazolo[1,5-a]pyridin-6-yl)-6-isopropyl-4H-pyrrolo[3,2-d]thiazol-2-yl)(4-isopropylpiperazin-1-yl)methanone], in that order: 5.07 nM, 11.5 nM and 6520 nM.
As for `Cc1c(-c2[nH]c3sc(C(=O)NCCC4CCN(C)CC4)nc3c2C(C)C)cn2ncnc2c1C` [Example 381, 5-(7,8-dimethyl-[1,2,4]triazolo[1,5-a]pyridin-6-yl)-6-isopropyl-N-(2-(1-methylpiperidin-4-yl)ethyl)-4H-pyrrolo[3,2-d]thiazole-2-carboxamide], the IC50 at human TLR8 stood at 9.06 nM; at human TLR7, 11.1 nM; at human TLR9 it was 5880 nM.
On to `Cc1c(-c2[nH]c3sc(C(=O)N(C)CCN(C)C)nc3c2C(C)C)cn2ncnc2c1C` [Example 382, 5-(7,8-dimethyl-[1,2,4]triazolo[1,5-a]pyridin-6-yl)-N-(2-(dimethylamino)ethyl)-6-isopropyl-N-methyl-4H-pyrrolo[3,2-d]thiazole-2-carboxamide], for which the IC50 on human TLR8 came out at 2.33 nM; on human TLR7, 2.32 nM; on human TLR9, 9860 nM.
For `Cc1c(-c2[nH]c3sc(C(=O)N4CC(N(C)C)C4)nc3c2C(C)C)cn2ncnc2c1C` [Example 383, (5-(7,8-dimethyl-[1,2,4]triazolo[1,5-a]pyridin-6-yl)-6-isopropyl-4H-pyrrolo[3,2-d]thiazol-2-yl) (3-(dimethylamino)azetidin-1-yl)methanone], the IC50 was found to be 3.51 nM at human TLR8, 17.5 nM on human TLR7 and 47000 nM at human TLR9.
For the compound `Cc1c(-c2[nH]c3sc(C(=O)NCC4CNCCO4)nc3c2C(C)C)cn2ncnc2c1C` (stereo not drawn) [Example 386, 5-(7,8-dimethyl-[1,2,4]triazolo[1,5-a]pyridin-6-yl)-6-isopropyl-N-(morpholin-2-ylmethyl)-4H-pyrrolo[3,2-d]thiazole-2-carboxamide], the IC50 turned out to be 3.56 nM on human TLR8, 10.3 nM at human TLR7 and 9560 nM on human TLR9.
Taken in the same sequence, the figures for `COc1cc(-c2[nH]c3sc(C(=O)NCCN4CCCC4)nc3c2C(C)C)cn2ncnc12` [Example 387, 6-isopropyl-5-(8-methoxy-[1,2,4]triazolo[1,5-a]pyridin-6-yl)-N-(2-(pyrrolidin-1-yl)ethyl)-4H-pyrrolo[3,2-d]thiazole-2-carboxamide] were 43.9 nM, 25.2 nM and 11500 nM.
For the compound `COc1cc(-c2[nH]c3sc(C(=O)NCCN(C)C)nc3c2C(C)C)cn2ncnc12` [Example 388, N-(2-(dimethylamino)ethyl)-6-isopropyl-5-(8-methoxy-[1,2,4]triazolo[1,5-a]pyridin-6-yl)-4H-pyrrolo[3,2-d]thiazole-2-carboxamide], the half-inhibitory concentration (IC50) was determined as 37.4 nM on human TLR8, 22.4 nM on human TLR7 and 16100 nM at human TLR9.
For `COc1cc(-c2[nH]c3sc(C(=O)NCC(F)F)nc3c2C(C)C)cn2ncnc12` [Example 389, N-(2,2-difluoroethyl)-6-isopropyl-5-(8-methoxy-[1,2,4]triazolo[1,5-a]pyridin-6-yl)-4H-pyrrolo[3,2-d]thiazole-2-carboxamide], the IC50 at human TLR8 is 168 nM; at human TLR7, 50.3 nM; against human TLR9, 37100 nM.
Taken in the same sequence, the figures for `Cc1cc(-c2[nH]c3sc(C(=O)N4CCC(N(C)C)CC4)nc3c2C(C)C)cn2ncnc12` [Example 395, (4-(dimethylamino)piperidin-1-yl)(6-isopropyl-5-(8-methyl-[1,2,4]triazolo[1,5-a]pyridin-6-yl)-4H-pyrrolo[3,2-d]thiazol-2-yl)methanone] were 6.75 nM, 7.89 nM and 4500 nM.
For `Cc1cc(-c2[nH]c3sc(C(=O)NCCN(C)C)nc3c2C(C)C)cn2ncnc12` [Example 400, N-(2-(dimethylamino)ethyl)-6-isopropyl-5-(8-methyl-[1,2,4]triazolo[1,5-a]pyridin-6-yl)-4H-pyrrolo[3,2-d]thiazole-2-carboxamide], in that order: 15.9 nM, 13.5 nM and 9250 nM.

The values are drawn from patent publication US20230139171A1 (SITA Information Networking Computing UK Limited, priority 2019, published 2023).
